Data from PMC8904075 (Journal of medicinal chemistry, 2021).
Where “and” joins values, the source holds several entries; their conditions need not be identical. Identical values can stand only once.

Columns and labels:
P. berghei-infected mice = conditions: antimalarials in clinical trials; cited from earlier work
P. berghei-GFP = assay: In vivo efficacy, modified Thompson test
[1] = assay type: in vivo
P. falciparum = assay: In vitro antimalarial activity as summarised in text; assay type: cell-based
[2] = Aqueous stability / parent compound release by quantitative HPLC; assay type: physicochemical; conditions: for parent compound released: release of parent compound 4
[3] = system: P. falciparum clone W2/Indochina (chloroquine and pyrimethamine resistant); assay: In vitro antimalarial activity, 3H-hypoxanthine incorporation, W2; assay type: cell-based; conditions: Table 2; means of at least two independent experiments
[4] = system: P. falciparum TM90-C2B/Thailand (chloroquine, mefloquine, pyrimethamine, and atovaquone resistant); assay: In vitro antimalarial activity, 3H-hypoxanthine incorporation, TM90-C2B; assay type: cell-based; conditions: Table 2; means of at least two independent experiments

With `C[C@H]1Cc2c([nH]c3cc(Cl)c(F)cc23)[C@@]2(N1)C(=O)Nc1ccc(Cl)cc12` [KAE609] as the compound, how does the “single oral (PO) curative dose, single exposure radical cure” value (“single oral (PO) curative dose” below) (P. berghei-infected mice) read?
The value was 100 mg/kg.

Which “single oral (PO) curative dose” value (P. berghei-infected mice) does the source give for `CS(=O)(=O)c1ccc(-c2cnc(N)c(-c3ccc(C(F)(F)F)nc3)c2)cc1` [MMV390048] here?
Its value is 30 mg/kg.

For `c1cc([C@H]2CC[C@]3(CC2)OOC2(O3)C3CC4CC(C3)CC2C4)ccc1OCCN1CCOCC1` (stereo partly shown) [OZ439], which “single oral (PO) curative dose” value (P. berghei-infected mice) is on record?
The value was 20 mg/kg.

Which in vivo activity (P. berghei-GFP; single dose of 10 mg/kg, 0.5% aqueous HEC) does the source give for `COc1cc2[nH]c(C)c(-c3ccc(Oc4ccc(OC(F)(F)F)cc4)cc3F)c(=O)c2cc1Cl` [compound 2, 6-chloro-3-(2-fluoro-4-(4-(trifluoromethoxy)phenoxy)phenyl)-7-methoxy-2-methyl-4(1H)-quinolone] here?
Its in vivo activity is “completely inactive”.

For `COc1cc2[nH]c(C)c(-c3ccc(C(F)(F)F)cc3)c(=O)c2cc1Cl` [compound 4, 6-chloro-7-methoxy-2-methyl-3-(4-(trifluoromethyl)phenyl)-4(1H)-quinolone], which Tmax ([1]; plasma, po, 50 mg/kg) is on record?
The Tmax was 2 h.

What about the “maximum plasma concentration of 4” value ([1]; single oral 50 mg/kg of 4, 0.5% aqueous HEC) of the same compound?
Its value is 365 nM.

For `CCOC(=O)Oc1c(-c2ccccc2C)c(C)nc2cc(OC)c(Cl)cc12` [compound 11, 6-Chloro-7-methoxy-2-methyl-3-(o-tolyl)-4-((ethoxycarbonyl)oxy)quinoline], which “fold less potent than reference compound 3” value (P. falciparum; in vitro antimalarial activity, Table 1) is on record?
The value was 10 fold.

For `CN1CCCOC1=O` [compound 13, 3-Methyl-1,3-oxazinan-2-one], which EC50 (P. falciparum; Plasmodium falciparum) is on record?
The EC50 was over 4 µM.

Which parent compound released ([2]; in 1 h at pH 7.0) does the source give for `CNCCOC(=O)OCOc1c(-c2ccc(C(F)(F)F)cc2)c(C)nc2cc(OC)c(Cl)cc12.Cl` [compound 27, 6-Chloro-7-methoxy-2-methyl-3-(4-(trifluoromethyl)phenyl)-4-(((2-(methylammonio)ethoxycarbonyl)oxy)methoxy)quinoline, chloride salt] here?
The parent compound released was over 90%.

And the parent compound released ([2]; in 10 h at pH 4.0)?
The parent compound released was over 25%.

With `CNCCCOC(=O)OCOc1c(-c2ccc(C(F)(F)F)cc2)c(C)nc2cc(OC)c(Cl)cc12.Cl` [compound 28, 6-Chloro-7-methoxy-2-methyl-3-(4-(trifluoromethyl)phenyl)-4-(((3-(methylammonio)propyloxycarbonyl)oxy)methoxy)quinoline, chloride salt] as the compound, how does the parent compound released ([2]; in 5 h at pH 7.0) read?
Its parent compound released is over 55%.

What about the “stability at low pH values” ([2]; low pH values) of the same compound?
Its value is “stable”.

What about the “Suppression [%] day 6 PI ± S.D.” value (P. berghei-GFP; 10 mg/kg PO once a day on days 3–5 PI, 0.5% aqueous HEC, mice) of the same compound?
Its value is 82 ± 0.6%.

And the “extension of life span of treated animals relative to untreated controls” value (P. berghei-GFP; 10 and 50 mg/kg PO days 3–5 PI)?
The value was “does not significantly extend”.

For `CNCCCOC(=O)OCOc1c(-c2ccc(Oc3ccc(OC(F)(F)F)cc3)cc2F)c(C)nc2cc(OC)c(Cl)cc12.Cl` [compound 30, 6-Chloro-7-methoxy-2-methyl-3-(2-fluoro-4-(4-(trifluoromethoxy)phenoxy)phenyl)-4-(((3-(methylammonio)propyloxycarbonyl)oxy)methoxy)quinoline, chloride salt], which “single oral dose producing cures” value (P. berghei-GFP; P. berghei-infected mice, single dose, no advanced formulation) is on record?
Its value is 3 mg/kg.

What about the “average day of death” value (P. berghei-GFP; single dose 1 mg/kg PO, all 5 mice) of the same compound?
The value was over 13 days.

And the number of cures (P. berghei-GFP; single dose 3 mg/kg PO on day 3 PI, 3 mg/kg)?
The number of cures was 5 out of 5 and 5/5.

What about the number of cures (P. berghei-GFP; single dose 10 mg/kg PO on day 3 PI, 10 mg/kg) of the same compound?
Its number of cures is 5 out of 5 and 5/5.

And the clearance ([1]; single oral administration, 0.5% aqueous HEC)?
Its clearance is “low clearance”.

For formaldehyde [compound 14], which “W2 pEC50” value [3] is on record?
Its value is “inactive”.

And the “C2B pEC50” value [4]?
The value was “inactive”.

And the EC50 (P. falciparum; release byproducts, devoid of antimalarial activity)?
Its EC50 is over 4 µM.
